IC50 data for eight compounds are collected here from patent US7074789B2, “Kinase inhibitors” (Amgen Inc., priority 1999, dated 2006).

Holding throughout (format): biochemical
The target of one test is T1, Hck-1 (Homo sapiens, UniProt P08631).
T1 construct: Kinases are expressed as either kinase domains or full length constructs; made in house
Briefly: Kinase inhibition assay (33P transfer), Hck. As to conditions: Table 6, Hck-1 kinase inhibition class.

In a further test the target is T2, Flt-1 (Homo sapiens, UniProt P17948).
T2 construct: Kinases are expressed as either kinase domains or full length constructs; made in house
Briefly: Kinase inhibition assay (33P transfer), Flt-1. The method in brief:
(§1)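 GST/His-fusion kinases, E. coli or High Five expressed, affinity purified; 33P-ATP, plate-coated poly(Glu,Tyr) 4:1 or poly(Arg,Ser) 3:1; 0.5% H3PO4 wash, scintillant, LSC.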

The target in the next test is T3, Lyn (Homo sapiens, UniProt P07948).
T3 construct: Kinases are expressed as either kinase domains or full length constructs; made in house
Briefly: Kinase inhibition assay (33P transfer), Lyn. Conditions: Table 6, Lyn-1 kinase inhibition class. The essentials:
as §1

The next test addresses T4, c-Met (Homo sapiens, UniProt P08581).
T4 construct: Kinases are expressed as either kinase domains or full length constructs; made in house
Briefly: Kinase inhibition assay (33P transfer), c-Met. As to conditions: Table 2, kinase inhibition class; read-out: Met-1. The method in brief: as §1

A further test has as its target T5, ErbB4 (Homo sapiens, UniProt Q15303).
T5 construct: Kinases are expressed as either kinase domains or full length constructs; made in house
Briefly: Kinase inhibition assay (33P transfer), ErbB4. As to conditions: read-out: ErbB4-1.

The next test concerns the target T6, PDGFRB (Homo sapiens, UniProt P09619).
T6 construct: Kinases are expressed as either kinase domains or full length constructs; made in house
Briefly: Kinase inhibition assay (33P transfer), PDGFRB. Conditions: read-out: PDGFRB-1.

A further test concerns the target T7, Fyn (Homo sapiens, UniProt P06241).
T7 construct: Kinases are expressed as either kinase domains or full length constructs; made in house
Briefly: Kinase inhibition assay (33P transfer), Fyn. As to conditions: read-out: Fyn-1. The method in brief: as §1

For another test, the target named is T8, Tek (Homo sapiens, UniProt Q02763).
T8 construct: Kinases are expressed as either kinase domains or full length constructs; made in house
Briefly: Kinase inhibition assay (33P transfer), Tek. Conditions: read-out: Tek-1. The method in brief:
as §1

For a further test, the target named is T9, Itk (Homo sapiens, UniProt Q08881).
T9 construct: Kinases are expressed as either kinase domains or full length constructs; made in house
T9 sequence (Q08881 1-620): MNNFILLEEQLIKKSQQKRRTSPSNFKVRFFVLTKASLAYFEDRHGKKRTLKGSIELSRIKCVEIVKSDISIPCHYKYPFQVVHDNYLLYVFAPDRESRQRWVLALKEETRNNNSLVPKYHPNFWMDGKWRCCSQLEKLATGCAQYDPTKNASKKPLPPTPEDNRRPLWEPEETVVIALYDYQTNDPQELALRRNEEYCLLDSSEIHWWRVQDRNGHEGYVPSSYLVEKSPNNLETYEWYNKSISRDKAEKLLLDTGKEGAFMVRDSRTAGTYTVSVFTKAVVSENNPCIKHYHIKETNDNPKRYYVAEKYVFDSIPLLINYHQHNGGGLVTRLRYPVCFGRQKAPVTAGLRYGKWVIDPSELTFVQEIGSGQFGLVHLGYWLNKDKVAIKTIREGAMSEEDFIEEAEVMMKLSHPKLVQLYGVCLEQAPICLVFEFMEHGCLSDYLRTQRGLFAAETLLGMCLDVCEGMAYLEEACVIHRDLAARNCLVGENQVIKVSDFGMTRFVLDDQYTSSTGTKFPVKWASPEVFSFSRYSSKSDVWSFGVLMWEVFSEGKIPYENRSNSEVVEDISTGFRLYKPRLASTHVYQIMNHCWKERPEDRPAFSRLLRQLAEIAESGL
Briefly: Kinase inhibition assay (33P transfer), Itk. Conditions: Table 3; read-out: Itk-1. The essentials: as §1

In a further test the target is T10, EGFR (Homo sapiens, UniProt P00533).
T10 construct: Kinases are expressed as either kinase domains or full length constructs; made in house
Briefly: Kinase inhibition assay (33P transfer), EGFR. Conditions: Table 2, kinase inhibition class; read-out: EGFR-1. The essentials: as §1

The next test addresses T11, AKT (Homo sapiens, UniProt Q9Y243).
T11 construct: Kinases are expressed as either kinase domains or full length constructs; made in house
Briefly: Kinase inhibition assay (33P transfer), AKT. Conditions: Table 2, kinase inhibition class; read-out: AKT3-1. The method in brief: (§2)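 Kinase domains or full-length kinases, GST- or His-tagged and expressed in E. coli or baculovirus/High Five cells, transferred 33PO4 from ATP onto plate-bound poly(Glu,Tyr) 4:1 or poly(Arg,Ser) 3:1. After incubation, plates were washed with 0.5% phosphoric acid and counted by liquid scintillation.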

A further test addresses T12, Zap-70 (Homo sapiens, UniProt P43403).
T12 construct: Kinases are expressed as either kinase domains or full length constructs; made in house
T12 sequence (P43403 1-619): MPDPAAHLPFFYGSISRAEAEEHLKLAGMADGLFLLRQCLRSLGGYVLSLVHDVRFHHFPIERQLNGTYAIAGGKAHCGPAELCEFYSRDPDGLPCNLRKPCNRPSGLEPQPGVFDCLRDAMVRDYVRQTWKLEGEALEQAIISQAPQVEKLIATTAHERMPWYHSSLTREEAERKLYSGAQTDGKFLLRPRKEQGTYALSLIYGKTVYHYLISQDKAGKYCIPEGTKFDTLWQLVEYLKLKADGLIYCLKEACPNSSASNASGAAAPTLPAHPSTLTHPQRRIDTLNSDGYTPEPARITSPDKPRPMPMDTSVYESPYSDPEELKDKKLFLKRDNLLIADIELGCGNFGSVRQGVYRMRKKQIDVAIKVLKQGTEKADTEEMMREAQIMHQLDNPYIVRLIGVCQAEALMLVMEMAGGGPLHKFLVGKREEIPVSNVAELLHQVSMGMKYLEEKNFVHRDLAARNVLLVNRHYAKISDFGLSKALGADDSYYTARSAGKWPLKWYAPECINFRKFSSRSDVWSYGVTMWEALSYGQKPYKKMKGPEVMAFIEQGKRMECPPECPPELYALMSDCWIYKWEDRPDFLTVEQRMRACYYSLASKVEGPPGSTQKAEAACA
Briefly: Kinase inhibition assay (33P transfer), Zap-70. As to conditions: Table 3; read-out: Zap-1. The method in brief: as §2

The next test has as its target T13, Lck (Homo sapiens, UniProt P06239).
T13 construct: Kinases are expressed as either kinase domains or full length constructs; made in house
Briefly: Kinase inhibition assay (33P transfer), Lck. Conditions: Table 3; read-out: Lck-1. The method in brief: as §2

A further test has as its target T14, Kdr (Homo sapiens, UniProt P35968).
T14 construct: Kinases are expressed as either kinase domains or full length constructs; made in house
Briefly: Kinase inhibition assay (33P transfer), Kdr. As to conditions: Table 3; read-out: KDR-1. The essentials: as §2

Another test deals with T15, Src (Homo sapiens, UniProt P12931).
T15 construct: Kinases are expressed as either kinase domains or full length constructs; made in house
Briefly: Kinase inhibition assay (33P transfer), Src. Conditions: Table 6, Src-1 kinase inhibition class. The method in brief: as §1

A further test has as its target T16, FGFR1 (Homo sapiens, UniProt P11362).
T16 construct: Kinases are expressed as either kinase domains or full length constructs; made in house
Briefly: Kinase inhibition assay (33P transfer), FGFR1. As to conditions: read-out: FGFR1-1.

T6 sequence (P09619 33-1106, species assumed): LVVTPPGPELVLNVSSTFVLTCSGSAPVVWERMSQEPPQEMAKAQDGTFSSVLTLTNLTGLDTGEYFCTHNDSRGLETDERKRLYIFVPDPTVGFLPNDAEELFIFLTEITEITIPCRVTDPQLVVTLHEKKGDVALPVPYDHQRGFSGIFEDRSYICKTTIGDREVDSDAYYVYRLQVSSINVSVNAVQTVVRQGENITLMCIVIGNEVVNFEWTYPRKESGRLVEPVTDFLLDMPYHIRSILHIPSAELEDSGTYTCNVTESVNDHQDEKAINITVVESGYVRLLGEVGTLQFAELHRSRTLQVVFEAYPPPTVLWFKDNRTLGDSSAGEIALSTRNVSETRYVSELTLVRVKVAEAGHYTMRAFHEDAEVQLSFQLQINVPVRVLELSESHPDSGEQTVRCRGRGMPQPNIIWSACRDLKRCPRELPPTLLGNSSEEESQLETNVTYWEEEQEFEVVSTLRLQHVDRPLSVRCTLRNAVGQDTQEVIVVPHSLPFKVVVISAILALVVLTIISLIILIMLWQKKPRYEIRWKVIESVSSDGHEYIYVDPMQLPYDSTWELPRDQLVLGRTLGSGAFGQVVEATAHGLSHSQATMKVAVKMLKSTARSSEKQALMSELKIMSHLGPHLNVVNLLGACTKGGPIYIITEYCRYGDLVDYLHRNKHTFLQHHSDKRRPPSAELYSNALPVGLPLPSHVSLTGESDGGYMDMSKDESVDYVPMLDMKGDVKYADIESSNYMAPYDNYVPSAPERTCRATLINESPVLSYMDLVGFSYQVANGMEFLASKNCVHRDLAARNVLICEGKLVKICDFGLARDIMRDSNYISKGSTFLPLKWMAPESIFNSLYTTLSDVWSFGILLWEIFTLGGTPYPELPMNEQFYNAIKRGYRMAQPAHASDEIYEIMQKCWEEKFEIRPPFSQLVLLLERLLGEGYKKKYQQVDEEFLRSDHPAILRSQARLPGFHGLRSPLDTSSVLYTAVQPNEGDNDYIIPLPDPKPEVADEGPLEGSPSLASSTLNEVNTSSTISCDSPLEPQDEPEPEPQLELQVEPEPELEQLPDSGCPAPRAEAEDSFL
T7 sequence (P06241 whole entry, species assumed, the tested form may be a part): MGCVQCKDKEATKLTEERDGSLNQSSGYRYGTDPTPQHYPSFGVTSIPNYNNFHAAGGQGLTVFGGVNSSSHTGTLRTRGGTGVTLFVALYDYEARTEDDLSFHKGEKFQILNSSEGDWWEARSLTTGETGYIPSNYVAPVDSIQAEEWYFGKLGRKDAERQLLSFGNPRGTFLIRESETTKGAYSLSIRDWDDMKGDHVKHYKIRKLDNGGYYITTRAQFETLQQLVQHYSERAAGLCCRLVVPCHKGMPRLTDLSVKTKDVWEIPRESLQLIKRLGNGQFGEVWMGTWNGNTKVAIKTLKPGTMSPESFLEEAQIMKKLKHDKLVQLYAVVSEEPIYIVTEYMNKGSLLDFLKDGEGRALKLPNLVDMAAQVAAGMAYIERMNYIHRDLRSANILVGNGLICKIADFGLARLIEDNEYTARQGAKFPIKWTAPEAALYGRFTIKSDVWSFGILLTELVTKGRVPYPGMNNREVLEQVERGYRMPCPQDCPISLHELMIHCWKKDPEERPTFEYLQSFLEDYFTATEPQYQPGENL
T8 sequence (Q02763 23-1124, species assumed): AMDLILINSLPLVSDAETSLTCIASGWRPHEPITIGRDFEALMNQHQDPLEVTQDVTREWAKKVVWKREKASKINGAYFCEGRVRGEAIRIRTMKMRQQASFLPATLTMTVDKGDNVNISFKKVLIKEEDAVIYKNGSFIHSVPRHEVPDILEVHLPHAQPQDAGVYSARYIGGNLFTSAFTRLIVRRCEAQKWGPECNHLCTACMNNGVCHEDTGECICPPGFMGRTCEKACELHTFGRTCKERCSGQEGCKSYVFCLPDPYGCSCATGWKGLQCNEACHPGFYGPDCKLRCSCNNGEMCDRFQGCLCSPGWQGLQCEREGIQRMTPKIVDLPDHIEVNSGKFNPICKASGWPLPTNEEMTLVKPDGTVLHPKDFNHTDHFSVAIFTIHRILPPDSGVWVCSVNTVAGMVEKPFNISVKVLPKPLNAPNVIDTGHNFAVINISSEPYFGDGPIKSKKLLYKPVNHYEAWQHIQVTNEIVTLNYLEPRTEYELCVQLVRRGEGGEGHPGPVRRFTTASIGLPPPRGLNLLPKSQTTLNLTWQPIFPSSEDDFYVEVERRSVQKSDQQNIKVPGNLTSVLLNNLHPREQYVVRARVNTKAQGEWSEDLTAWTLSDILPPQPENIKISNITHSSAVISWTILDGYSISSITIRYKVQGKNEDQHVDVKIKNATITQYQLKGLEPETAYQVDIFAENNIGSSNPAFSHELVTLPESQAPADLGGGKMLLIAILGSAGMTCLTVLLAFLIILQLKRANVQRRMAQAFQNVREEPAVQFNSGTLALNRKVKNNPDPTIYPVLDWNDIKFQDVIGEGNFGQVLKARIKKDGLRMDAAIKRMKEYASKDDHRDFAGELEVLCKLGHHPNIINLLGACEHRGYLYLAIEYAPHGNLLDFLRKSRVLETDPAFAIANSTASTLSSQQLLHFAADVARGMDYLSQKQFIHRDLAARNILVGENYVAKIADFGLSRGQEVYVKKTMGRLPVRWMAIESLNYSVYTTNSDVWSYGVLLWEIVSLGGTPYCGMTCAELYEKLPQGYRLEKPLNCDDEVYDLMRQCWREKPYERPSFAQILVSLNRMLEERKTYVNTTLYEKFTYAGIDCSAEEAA
T5 sequence (Q15303 26-1308, species assumed): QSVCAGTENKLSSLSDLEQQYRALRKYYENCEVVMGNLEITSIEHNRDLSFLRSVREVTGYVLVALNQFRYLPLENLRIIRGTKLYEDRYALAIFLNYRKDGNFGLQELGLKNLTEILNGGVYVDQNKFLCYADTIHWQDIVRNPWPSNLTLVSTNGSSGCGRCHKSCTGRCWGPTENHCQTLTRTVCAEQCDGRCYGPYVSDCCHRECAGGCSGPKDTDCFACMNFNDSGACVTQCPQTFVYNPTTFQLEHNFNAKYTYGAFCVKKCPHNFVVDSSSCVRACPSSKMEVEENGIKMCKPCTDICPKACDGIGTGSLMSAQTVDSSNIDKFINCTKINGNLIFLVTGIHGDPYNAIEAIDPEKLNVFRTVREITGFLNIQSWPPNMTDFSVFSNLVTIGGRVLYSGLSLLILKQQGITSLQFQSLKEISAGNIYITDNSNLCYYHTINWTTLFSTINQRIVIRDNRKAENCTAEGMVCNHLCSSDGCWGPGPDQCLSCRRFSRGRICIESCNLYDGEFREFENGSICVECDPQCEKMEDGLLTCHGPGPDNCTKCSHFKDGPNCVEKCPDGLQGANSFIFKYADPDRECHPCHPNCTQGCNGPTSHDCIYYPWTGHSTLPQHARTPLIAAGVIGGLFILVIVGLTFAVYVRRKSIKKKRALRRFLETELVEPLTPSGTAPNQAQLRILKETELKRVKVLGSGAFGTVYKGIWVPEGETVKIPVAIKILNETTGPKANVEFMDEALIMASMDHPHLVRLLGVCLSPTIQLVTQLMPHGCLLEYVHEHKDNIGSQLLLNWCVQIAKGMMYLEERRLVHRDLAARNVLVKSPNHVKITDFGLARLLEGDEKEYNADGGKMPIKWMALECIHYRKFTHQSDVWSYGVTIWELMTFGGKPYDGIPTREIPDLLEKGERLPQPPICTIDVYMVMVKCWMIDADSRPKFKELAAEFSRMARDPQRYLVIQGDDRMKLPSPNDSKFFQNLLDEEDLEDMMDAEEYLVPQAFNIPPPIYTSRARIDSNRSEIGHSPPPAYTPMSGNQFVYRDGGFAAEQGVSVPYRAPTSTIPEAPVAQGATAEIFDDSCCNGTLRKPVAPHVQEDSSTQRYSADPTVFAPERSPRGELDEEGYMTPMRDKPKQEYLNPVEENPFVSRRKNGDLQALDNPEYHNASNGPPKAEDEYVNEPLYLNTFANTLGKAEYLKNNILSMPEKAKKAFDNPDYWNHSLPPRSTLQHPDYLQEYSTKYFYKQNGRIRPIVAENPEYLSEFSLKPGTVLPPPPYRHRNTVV
T3 sequence (P07948 whole entry, species assumed, the tested form may be a part): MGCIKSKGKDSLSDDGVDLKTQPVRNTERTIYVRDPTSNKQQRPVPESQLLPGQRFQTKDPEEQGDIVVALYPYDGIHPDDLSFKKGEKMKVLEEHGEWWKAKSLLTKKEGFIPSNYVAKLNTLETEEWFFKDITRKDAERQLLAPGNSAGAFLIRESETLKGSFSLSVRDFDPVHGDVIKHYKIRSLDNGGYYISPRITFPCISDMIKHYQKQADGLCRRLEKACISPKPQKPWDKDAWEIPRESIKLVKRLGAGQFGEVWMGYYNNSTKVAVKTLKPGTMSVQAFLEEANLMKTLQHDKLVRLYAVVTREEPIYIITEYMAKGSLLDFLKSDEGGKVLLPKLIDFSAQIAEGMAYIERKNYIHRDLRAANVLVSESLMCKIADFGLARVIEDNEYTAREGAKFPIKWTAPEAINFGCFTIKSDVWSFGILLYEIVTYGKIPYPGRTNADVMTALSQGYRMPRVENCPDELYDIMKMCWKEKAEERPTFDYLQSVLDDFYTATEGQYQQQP
T11 sequence (Q9Y243 whole entry, the tested form may be a part): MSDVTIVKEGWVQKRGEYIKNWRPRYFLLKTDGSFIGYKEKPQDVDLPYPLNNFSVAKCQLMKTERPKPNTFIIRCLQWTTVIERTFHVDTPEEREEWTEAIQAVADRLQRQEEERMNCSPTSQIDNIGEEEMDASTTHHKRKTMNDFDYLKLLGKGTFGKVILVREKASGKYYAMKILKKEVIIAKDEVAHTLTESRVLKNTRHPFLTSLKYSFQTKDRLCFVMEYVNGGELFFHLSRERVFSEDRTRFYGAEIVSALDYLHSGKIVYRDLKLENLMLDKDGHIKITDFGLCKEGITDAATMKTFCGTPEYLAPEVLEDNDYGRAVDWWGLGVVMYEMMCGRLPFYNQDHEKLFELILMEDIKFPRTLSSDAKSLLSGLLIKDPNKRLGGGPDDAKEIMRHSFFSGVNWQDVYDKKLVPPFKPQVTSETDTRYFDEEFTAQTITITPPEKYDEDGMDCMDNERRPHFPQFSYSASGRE

Take `COc1cc(Nc2ncnc(-n3ccc4cc(F)ccc43)n2)cc(OC)c1OC` [Compound 441]: the IC50 was above 11.4 µM at Hck-1; 1.01 to 6.07 µM against Flt-1; above 11.4 µM on Lyn; above 11.4 µM at c-Met; above 11.4 µM on ErbB4; below 1.01 µM at PDGFRB. Also, the IC50 at Fyn was 1.01 to 6.07 µM; at Tek it was above 11.4 µM; on Itk, above 11.4 µM; at EGFR it was above 11.4 µM; at AKT, above 11.4 µM; at Zap-70 it was above 11.4 µM. The IC50 at Lck was 6.07 to 8.85 µM; on Kdr it was below 1.01 µM; against Src, above 11.4 µM; on FGFR1, above 11.4 µM.

Turning to `COc1cccc(Nc2nc3ccccc3n2-c2ncnc(Nc3cc(OC)c(OC)c(OC)c3)n2)c1` [Compound 415], the IC50 at Hck-1 is above 9.01 µM; at Flt-1 it was 0.801 to 4.8 µM; against Lyn, above 9.01 µM; on c-Met, above 9.01 µM; on ErbB4, above 9.01 µM; on PDGFRB, below 0.801 µM. In addition, the IC50 at Fyn, on Tek, on Itk, on EGFR, on AKT and at Zap-70 was above 9.01 µM each time. Besides, the IC50 on Lck was 4.8 to 7.01 µM; on Kdr, below 0.801 µM; at Src, above 9.01 µM; at FGFR1 it was below 0.801 µM.

Regarding `Nc1nc2ccccc2n1-c1ncnc(Nc2cccc(-c3cnco3)c2)n1` [Compound 439], the IC50 against Hck-1 is 1.08 to 6.48 µM; on Flt-1, below 1.08 µM; at Lyn, 1.08 to 6.48 µM; at c-Met, 1.08 to 6.48 µM; on ErbB4 it was 1.08 to 6.48 µM; at PDGFRB, below 1.08 µM. For the same compound, the IC50 at Fyn lay in the range of 1.08 to 6.48 µM; on Tek, 1.08 to 6.48 µM; at Itk, 1.08 to 6.48 µM; at EGFR it was 1.08 to 6.48 µM; on AKT, 1.08 to 6.48 µM; at Zap-70 it was 6.48 to 9.45 µM. Moreover, the IC50 was 1.08 to 6.48 µM on Lck, below 1.08 µM on Kdr, 1.08 to 6.48 µM against Src and below 1.08 µM at FGFR1.

For `COc1cc(Nc2ncnc(-n3c(Nc4cc(C)n[nH]4)nc4ccccc43)n2)cc(OC)c1OC` [Compound 401], the IC50 is 0.845 to 5.07 µM at Hck-1; below 0.845 µM on Flt-1; 0.845 to 5.07 µM against Lyn; 0.845 to 5.07 µM on c-Met; 0.845 to 5.07 µM on ErbB4; below 0.845 µM on PDGFRB. Further, the IC50 was 0.845 to 5.07 µM at Fyn; 0.845 to 5.07 µM at Tek; below 0.845 µM on Itk; 0.845 to 5.07 µM at EGFR; above 9.5 µM on AKT; 0.845 to 5.07 µM at Zap-70. Besides, the IC50 is 0.845 to 5.07 µM on Lck, below 0.845 µM on Kdr, 0.845 to 5.07 µM against Src and below 0.845 µM on FGFR1.

Turning to `COc1ccc(Nc2nc3ccccc3n2-c2ncnc(Nc3cc(OC)c(OC)c(OC)c3)n2)cc1` [Compound 397], the IC50 against Hck-1 was above 9.01 µM; on Flt-1, below 0.801 µM; on Lyn, above 9.01 µM; at c-Met it was above 9.01 µM; at ErbB4, above 9.01 µM; at PDGFRB it was below 0.801 µM. Also, the IC50 at Fyn, on Tek, on Itk, on EGFR, at AKT and at Zap-70 was above 9.01 µM each time. Also, the IC50 is below 0.801 µM at Lck, below 0.801 µM at Kdr, above 9.01 µM on Src and below 0.801 µM at FGFR1.

For the compound `COc1cc(Nc2ncnc(-n3c(Nc4ccc5cn[nH]c5c4)nc4ccccc43)n2)cc(OC)c1OC` [Compound 406], the IC50 against Hck-1 is above 8.83 µM; against Flt-1, 4.71 to 6.87 µM; against Lyn, 0.785 to 4.71 µM; at c-Met, above 8.83 µM; on ErbB4, above 8.83 µM; on PDGFRB, 0.785 to 4.71 µM. The IC50 at Fyn is 0.785 to 4.71 µM; at Tek, above 8.83 µM; on Itk, above 8.83 µM; at EGFR, above 8.83 µM; on AKT it was above 8.83 µM; on Zap-70, above 8.83 µM. For the same compound, the IC50 was 0.785 to 4.71 µM on Lck, 0.785 to 4.71 µM at Kdr, above 8.83 µM on Src and below 0.785 µM at FGFR1.

As for `CCOC(=O)Cc1cn(-c2ncnc(Nc3cc(OC)c(OC)c(OC)c3)n2)c2ccccc12` [Compound 411], the IC50 was above 9.71 µM at Hck-1; 0.863 to 5.18 µM against Flt-1; 0.863 to 5.18 µM on Lyn; below 0.863 µM at c-Met; above 9.71 µM at ErbB4; below 0.863 µM on PDGFRB. Besides, the IC50 on Fyn, at Tek, at Itk, on EGFR, at AKT and at Zap-70 was above 9.71 µM in each case. In addition, the IC50 was 7.55 to 9.71 µM at Lck, below 0.863 µM at Kdr, 0.863 to 5.18 µM on Src and below 0.863 µM at FGFR1.

For `NCc1ccc(Nc2ncnc(Nc3cc(-c4ccco4)n[nH]3)n2)cc1` [Compound 437], the IC50 on Hck-1 is 10 to 12.9 µM; against Flt-1, 1.15 to 6.89 µM; against Lyn, 1.15 to 6.89 µM; on c-Met, 1.15 to 6.89 µM; on ErbB4, 1.15 to 6.89 µM; at PDGFRB, below 1.15 µM. For the same compound, the IC50 on Fyn is 1.15 to 6.89 µM; on Tek, 6.89 to 10 µM; at Itk it was 1.15 to 6.89 µM; on EGFR it was 1.15 to 6.89 µM; on AKT it was above 12.9 µM; at Zap-70, above 12.9 µM. Besides, the IC50 at Lck was 1.15 to 6.89 µM; on Kdr it was below 1.15 µM; against Src, 1.15 to 6.89 µM; at FGFR1, below 1.15 µM.
